# Laboratory results: paper PMC10141580, “Cyclic Dichalcogenides Extend the Reach of Bioreductive Prodrugs to Harness Thiol/Disulfide Oxidoreductases: Applications to seco-Duocarmycins Targeting the Thioredoxin System” (ACS Central Science, 2023)
# Read-outs that look alike come from different tables or passages of the source.
# Assays:
# [1] = test system: NCI-60 standardized human tumor cell line panel; test: cells; type: cell-based; conditions: for GI50: Homo sapiens
# A549 cells = test: Resazurin cytotoxicity assay, A549, 72 h; conditions: Homo sapiens, read-out: IC50(nM): A549
# Protocol: We used A549 lung cancer and HeLa cervical cancer cell lines for initial screening of the prodrugs.
# Fi gure S9: Cell ular resazurin-based cytotoxi ci ty as s a y.
# Dose -response curves were calculated from at least 27 incremental single concentrations over a range
# of at least three log units. Individual experiments with annotated experiment numbers are shown for each prodrug
smiles,measurement,setting,value
COc1cc2cc(C(=O)N3C[C@@H](CCl)c4c3cc(OC(=O)N3CCN(C(=O)CCC(=O)N5CCN(C)CC5)[C@H]5CSSC[C@H]53)c3ccccc43)[nH]c2c(OC)c1OC [P-SS66C-CBI-TMI],GI50,"[1]; PC-3, PC-3, read-out: GI50",0.48 µM
same,GI50,"[1]; RPMI-8226, RPMI-8226, read-out: GI50",0.14 µM
same,GI50,"[1]; RPMI-8226, cell line RPMI-8226 (LE:RPMI-8226), TMI sheet, read-out: NCI-60 screening: Log(GI50) (converted)",0.141 µM
same,GI50,"[1]; RPMI-8226, cell line RPMI-8226 (LE:RPMI-8226), TMI sheet, read-out: NCI-60 screening: Raw GI50",0.14 µM
same,GI50,"[1]; RXF 393, RXF 393 (RE) cell line, log10 of GI50 in M, read-out: NCI-60 screening: Log(GI50) (converted)",0.0347 µM
same,GI50,"[1]; RXF 393, RXF 393, read-out: GI50",0.035 µM
same,GI50,"[1]; SF-268, SF-268, read-out: GI50",0.058 µM
same,GI50,"[1]; SF-268, cell line SF-268 (CNS:SF-268), TMI sheet, read-out: NCI-60 screening: Log(GI50) (converted)",0.0589 µM
same,GI50,"[1]; SF-295, SF-295, read-out: GI50",0.11 µM
same,GI50,"[1]; SF-295, cell line SF-295 (CNS:SF-295), TMI sheet, read-out: NCI-60 screening: Log(GI50) (converted)",0.112 µM
same,GI50,"[1]; SF-295, cell line SF-295 (CNS:SF-295), TMI sheet, read-out: NCI-60 screening: Raw GI50",0.11 µM
same,GI50,"[1]; SF-539, SF-539, read-out: GI50",0.039 µM
same,GI50,"[1]; SK-MEL-5, SK-MEL-5, read-out: GI50",0.11 µM
same,GI50,"[1]; SK-MEL-5, cell line SK-MEL-5 (ME:SK-MEL-5), TMI sheet, read-out: NCI-60 screening: Log(GI50) (converted)",0.112 µM
same,GI50,"[1]; SK-MEL-5, cell line SK-MEL-5 (ME:SK-MEL-5), TMI sheet, read-out: NCI-60 screening: Raw GI50",0.11 µM
same,GI50,"[1]; SK-MEL-28, SK-MEL-28, read-out: GI50",0.16 µM
same,GI50,"[1]; SK-MEL-28, cell line SK-MEL-28 (ME:SK-MEL-28), TMI sheet, read-out: NCI-60 screening: Log(GI50) (converted)",0.158 µM
same,GI50,"[1]; SK-OV-3, SK-OV-3 (OV) cell line, log10 of GI50 in M, read-out: NCI-60 screening: Log(GI50) (converted)",0.0724 µM
same,GI50,"[1]; SK-OV-3, SK-OV-3, read-out: GI50",0.072 µM
same,GI50,"[1]; SN12C, SN12C (RE) cell line, log10 of GI50 in M, read-out: NCI-60 screening: Log(GI50) (converted)",0.0447 µM
same,GI50,"[1]; SN12C, read-out: GI50",0.045 µM
same,GI50,"[1]; SNB-19, SNB-19, read-out: GI50",0.091 µM
same,GI50,"[1]; SNB-19, cell line SNB-19 (CNS:SNB-19), TMI sheet, read-out: NCI-60 screening: Log(GI50) (converted)",0.0912 µM
same,GI50,"[1]; SR, read-out: GI50",0.019 µM
same,GI50,"[1]; SW-620, SW-620, read-out: GI50",0.13 µM
same,GI50,"[1]; SW-620, cell line SW-620 (CO:SW-620), TMI sheet, read-out: NCI-60 screening: Log(GI50) (converted)",0.132 µM
same,GI50,"[1]; SW-620, cell line SW-620 (CO:SW-620), TMI sheet, read-out: NCI-60 screening: Raw GI50",0.13 µM
same,GI50,"[1]; T47D, T-47D, read-out: GI50",0.23 µM
same,GI50,"[1]; T47D, cell line T-47D (BR:T-47D), TMI sheet, read-out: NCI-60 screening: Log(GI50) (converted)",0.229 µM
same,GI50,"[1]; TK-10, TK-10 (RE) cell line, log10 of GI50 in M, read-out: NCI-60 screening: Log(GI50) (converted)",1.05 µM
same,GI50,"[1]; TK-10, TK-10, read-out: GI50",1 µM
same,GI50,"[1]; U-251, U251, read-out: GI50",0.081 µM
same,GI50,"[1]; U-251, cell line U251 (CNS:U251), TMI sheet, read-out: NCI-60 screening: Log(GI50) (converted)",0.0813 µM
same,GI50,"[1]; UACC-62, UACC-62, read-out: GI50",0.14 µM
same,GI50,"[1]; UACC-62, cell line UACC-62 (ME:UACC-62), TMI sheet, read-out: NCI-60 screening: Log(GI50) (converted)",0.135 µM
same,GI50,"[1]; UACC-62, cell line UACC-62 (ME:UACC-62), TMI sheet, read-out: NCI-60 screening: Raw GI50",0.14 µM
same,GI50,"[1]; UACC-257, UACC-257, read-out: GI50",0.27 µM
same,GI50,"[1]; UACC-257, cell line UACC-257 (ME:UACC-257), TMI sheet, read-out: NCI-60 screening: Log(GI50) (converted)",0.275 µM
same,GI50,"[1]; UACC-257, cell line UACC-257 (ME:UACC-257), TMI sheet, read-out: NCI-60 screening: Raw GI50",0.27 µM
same,GI50,"[1]; cell line M14 (ME:M14), TMI sheet, read-out: NCI-60 screening: Log(GI50) (converted)",0.123 µM
same,GI50,"[1]; cell line SF-539 (CNS:SF-539), TMI sheet, read-out: NCI-60 screening: Log(GI50) (converted)",0.0389 µM
same,GI50,"[1]; cell line SR (LE:SR), TMI sheet, read-out: NCI-60 screening: Log(GI50) (converted)",0.0195 µM
same,GI50,"[1]; cell line SR (LE:SR), TMI sheet, read-out: NCI-60 screening: Raw GI50",0.019 µM
same,NCI-60 screening: Log(RedIndex),"[1]; IGROV1 (OV) cell line, log10 reductive index vs P-CC60",1.07
same,"GI50/IC50, mean","[1]; NCI-60 vs ProliFiler, 19 overlapping cell lines",3.5
same,NCI-60 screening: Log(RedIndex),"[1]; NCI-H460 (LC) cell line, log10 reductive index vs P-CC60",1.36
same,NCI-60 screening: Log(RedIndex),"[1]; NCI-H522 (LC) cell line, log10 reductive index vs P-CC60",1.49
same,NCI-60 screening: Log(RedIndex),"[1]; OVCAR-3 (OV) cell line, log10 reductive index vs P-CC60",1.16
same,NCI-60 screening: Log(RedIndex),"[1]; OVCAR-4 (OV) cell line, log10 reductive index vs P-CC60",1.08
same,NCI-60 screening: Log(RedIndex),"[1]; OVCAR-5 (OV) cell line, log10 reductive index vs P-CC60",1.3
same,NCI-60 screening: Log(RedIndex),"[1]; OVCAR-8 (OV) cell line, log10 reductive index vs P-CC60",1.26
same,NCI-60 screening: Log(RedIndex),"[1]; PC-3 (PR) cell line, log10 reductive index vs P-CC60",0.82
same,NCI-60 screening: Log(RedIndex),"[1]; RXF 393 (RE) cell line, log10 reductive index vs P-CC60",1.48
same,NCI-60 screening: Log(RedIndex),"[1]; SK-OV-3 (OV) cell line, log10 reductive index vs P-CC60",1.47
same,NCI-60 screening: Log(RedIndex),"[1]; SN12C (RE) cell line, log10 reductive index vs P-CC60",1.43
same,NCI-60 screening: Log(RedIndex),"[1]; TK-10 (RE) cell line, log10 reductive index vs P-CC60",0.43
same,NCI-60 screening: Log(RedIndex),"[1]; cell line A549/ATCC (LC:A549/ATCC), TMI sheet",1.35
same,NCI-60 screening: Log(RedIndex),"[1]; cell line BT-549 (BR:BT-549), TMI sheet",1.04
same,NCI-60 screening: Log(RedIndex),"[1]; cell line CCRF-CEM (LE:CCRF-CEM), TMI sheet",0.57
same,NCI-60 screening: Log(RedIndex),"[1]; cell line COLO 205 (CO:COLO 205), TMI sheet",0.98
same,NCI-60 screening: Log(RedIndex),"[1]; cell line EKVX (LC:EKVX), TMI sheet",0.97
same,NCI-60 screening: Log(RedIndex),"[1]; cell line HCC-2998 (CO:HCC-2998), TMI sheet",1.45
same,NCI-60 screening: Log(RedIndex),"[1]; cell line HCT-15 (CO:HCT-15), TMI sheet",0.85
same,NCI-60 screening: Log(RedIndex),"[1]; cell line HCT-116 (CO:HCT-116), TMI sheet",0.99
same,NCI-60 screening: Log(RedIndex),"[1]; cell line HL-60(TB) (LE:HL-60(TB)), TMI sheet",1.19
same,NCI-60 screening: Log(RedIndex),"[1]; cell line HOP-62 (LC:HOP-62), TMI sheet",1.16
same,NCI-60 screening: Log(RedIndex),"[1]; cell line HOP-92 (LC:HOP-92), TMI sheet",1.15
same,NCI-60 screening: Log(RedIndex),"[1]; cell line HT29 (CO:HT29), TMI sheet",1.03
same,NCI-60 screening: Log(RedIndex),"[1]; cell line K-562 (LE:K-562), TMI sheet",0.88
same,NCI-60 screening: Log(RedIndex),"[1]; cell line KM12 (CO:KM12), TMI sheet",1.2
same,NCI-60 screening: Log(RedIndex),"[1]; cell line LOX IMVI (ME:LOX IMVI), TMI sheet",1.2
same,NCI-60 screening: Log(RedIndex),"[1]; cell line M14 (ME:M14), TMI sheet",1.09
same,NCI-60 screening: Log(RedIndex),"[1]; cell line MALME-3M (ME:MALME-3M), TMI sheet",1.07
same,NCI-60 screening: Log(RedIndex),"[1]; cell line MCF7 (BR:MCF7), TMI sheet",1.33
same,NCI-60 screening: Log(RedIndex),"[1]; cell line MDA-MB-435 (ME:MDA-MB-435), TMI sheet",1.08
same,NCI-60 screening: Log(RedIndex),"[1]; cell line MOLT-4 (LE:MOLT-4), TMI sheet",0.98
same,NCI-60 screening: Log(RedIndex),"[1]; cell line NCI-H23 (LC:NCI-H23), TMI sheet",1.4
same,NCI-60 screening: Log(RedIndex),"[1]; cell line NCI-H226 (LC:NCI-H226), TMI sheet",0.77
same,NCI-60 screening: Log(RedIndex),"[1]; cell line RPMI-8226 (LE:RPMI-8226), TMI sheet",1.02
same,NCI-60 screening: Log(RedIndex),"[1]; cell line SF-268 (CNS:SF-268), TMI sheet",1.42
same,NCI-60 screening: Log(RedIndex),"[1]; cell line SF-295 (CNS:SF-295), TMI sheet",1.15
same,NCI-60 screening: Log(RedIndex),"[1]; cell line SF-539 (CNS:SF-539), TMI sheet",1.53
same,NCI-60 screening: Log(RedIndex),"[1]; cell line SK-MEL-5 (ME:SK-MEL-5), TMI sheet",1.17
same,NCI-60 screening: Log(RedIndex),"[1]; cell line SK-MEL-28 (ME:SK-MEL-28), TMI sheet",1.35
same,NCI-60 screening: Log(RedIndex),"[1]; cell line SNB-19 (CNS:SNB-19), TMI sheet",1.39
same,NCI-60 screening: Log(RedIndex),"[1]; cell line SR (LE:SR), TMI sheet",1.15
same,NCI-60 screening: Log(RedIndex),"[1]; cell line SW-620 (CO:SW-620), TMI sheet",1.15
same,NCI-60 screening: Log(RedIndex),"[1]; cell line T-47D (BR:T-47D), TMI sheet",0.92
same,NCI-60 screening: Log(RedIndex),"[1]; cell line U251 (CNS:U251), TMI sheet",1.27
same,NCI-60 screening: Log(RedIndex),"[1]; cell line UACC-62 (ME:UACC-62), TMI sheet",1.05
same,NCI-60 screening: Log(RedIndex),"[1]; cell line UACC-257 (ME:UACC-257), TMI sheet",0.86
same,mean reductive index,"[1]; mean over NCI cell lines, vs P-CC60",14
same,reductive index,"[1]; span over NCI cell lines, vs P-CC60",≤ 30
same,IC50,A549 cells,12 nM
